Key:
Type in all cases: in vivo
[1] = tested on: pigweed (Amaranthus retroflexus); experiment: Test A pre-/postemergence: pigweed; conditions: for Pigweed plant response rating: visual rating on 0 to 100 scale (0 no effect, 100 complete control), approximately ten days
Outline: (§1)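 Compounds, formulated with surfactant in non-phytotoxic solvent, were applied as a directed soil spray preemergence and as postemergence sprays to 2–10 cm, one- to two-leaf seedlings grown in loam soil blended with sand; visual injury, 0–100, assessed ~10 days post-treatment against untreated controls.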

[2] = tested on: wheat (Triticum aestivum); experiment: Test A pre-/postemergence: wheat; conditions: for Wheat plant response rating: visual rating on 0 to 100 scale (0 no effect, 100 complete control), approximately ten days
Outline: as §1

[3] = tested on: barnyardgrass (Echinochloa crus-galli); experiment: Test B flooded paddy: barnyardgrass; conditions: Flood; 250 g ai/ha; applied to paddy water at 2-leaf stage; visually evaluated after 13 to 15 days
Outline: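 Plants were grown to the 2-leaf stage and pots flooded to 3 cm above soil. Compounds were applied directly into the paddy water, with depth kept for the test. After 13–15 days in greenhouse, response was rated visually against controls on a 0 (no effect) to 100 (complete control) scale.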

[4] = tested on: ryegrass, Italian (Italian ryegrass, Lolium multiflorum); experiment: Test C pre-/postemergence: ryegrass, Italian
Outline: (§2)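 Preemergence on seeds in loam/sand, postemergence on 2–18 cm (1–4-leaf) plants in peat-based medium; compounds in non-phytotoxic solvent with surfactant. After 13–15 days in greenhouse, visual rating versus controls, 0 (no effect) to 100 (complete control).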

[5] = tested on: galium (catchweed bedstraw, Galium aparine); experiment: Test C pre-/postemergence: galium
Outline: as §2

[6] = tested on: corn (Zea mays); experiment: Test C pre-/postemergence: corn
Outline: as §2

[7] = tested on: large crabgrass (Digitaria sanguinalis); experiment: Test C pre-/postemergence: large crabgrass
Outline: as §2

[8] = tested on: foxtail, giant (giant foxtail, Setaria faberii); experiment: Test C pre-/postemergence: foxtail, giant
Outline: as §2

[9] = tested on: lambsquarters (Chenopodium album); experiment: Test C pre-/postemergence: lambsquarters
Outline: as §2

[10] = tested on: morningglory (Ipomoea coccinea); experiment: Test C pre-/postemergence: morningglory
Outline: as §2

[11] = Postemergence, 125 g ai/ha, 0 to 100 scale, 0 is no effect, 100 is complete control
[12] = Preemergence, 125 g ai/ha, 0 to 100 scale where 0 is no effect and 100 is complete control
[13] = Preemergence, 500 g ai/ha, 0 to 100 scale (0 no effect, 100 complete control)
[14] = Postemergence, 31 g ai/ha, scale 0 to 100 (0 no effect, 100 complete control)
[15] = Postemergence, 62 g ai/ha, scale 0 to 100 (0 no effect, 100 complete control)
[16] = Postemergence, 125 g ai/ha, scale 0 to 100, 0 no effect, 100 complete control
[17] = Postemergence, 250 g ai/ha, scale 0 to 100
[18] = Preemergence, 31 g ai/ha, scale of 0 to 100, 0 is no effect, 100 is complete control
[19] = Preemergence, 62 g ai/ha, scale of 0 to 100, 0 is no effect, 100 is complete control
[20] = Preemergence, 125 g ai/ha, scale 0 to 100, 0 no effect, 100 complete control
[21] = Preemergence, 250 g ai/ha, scale 0 to 100, 0 no effect, 100 complete control
[22] = Postemergence, 16 g ai/ha, scale 0 to 100, 0 no effect, 100 complete control
[23] = Preemergence, 16 g ai/ha, scale 0 (no effect) to 100 (complete control)

Q: Which “Plant response rating, Pigweed” value [1, 11] does the source give for Cc1nn(-c2ccc(F)c(C(F)(F)F)c2)nc1Cc1ccnc(C(F)(F)F)c1 [Compound 156] here?
A: Its value is 100.

Q: What about the “Pigweed plant response rating” value ([1]; Postemergence, 500 g ai/ha) of the same molecule?
A: The value was 100.

Q: And the “Plant response rating, Pigweed” value [1, 12]?
A: Its value is 100.

Q: What about the “Plant response rating, Pigweed” value [1, 13] of the same molecule?
A: The value was 100.

Q: And the “Plant response rating, Wheat” value [2, 11]?
A: Its value is 40.

Q: What about the “Wheat plant response rating” value ([2]; Postemergence, 500 g ai/ha) of the same molecule?
A: The value was 60.

Q: What about the “Plant response rating, Wheat” value [2, 12] of the same molecule?
A: Its value is 20.

Q: And the “Plant response rating, Wheat” value [2, 13]?
A: The value was 80.

Q: What about the “Plant response rating, Barnyardgrass (0 to 100 scale, 0 is no effect, 100 is complete control)” value [3] of the same molecule?
A: The value was 75.

Q: What about the “Plant response rating, Ryegrass, Italian” value [4, 14] of the same molecule?
A: Its value is 15.

Q: And the “Plant response rating, Ryegrass, Italian” value [4, 15]?
A: The value was 35.

Q: What about the “Plant response rating, Ryegrass, Italian” value [4, 16] of the same molecule?
A: Its value is 35.

Q: What about the “Plant response rating, Ryegrass, Italian” value [4, 17] of the same molecule?
A: Its value is 70.

Q: And the “Plant response rating, Ryegrass, Italian” value [4, 18]?
A: Its value is 45.

Q: And the “Plant response rating, Ryegrass, Italian” value [4, 19]?
A: Its value is 80.

Q: And the “Plant response rating, Ryegrass, Italian” value [4, 20]?
A: Its value is 90.

Q: And the “Plant response rating, Ryegrass, Italian” value [4, 21]?
A: The value was 90.

Q: What about the “Plant response rating, Galium” value [5, 14] of the same molecule?
A: Its value is 80.

Q: What about the “Plant response rating, Galium” value [5, 15] of the same molecule?
A: Its value is 90.

Q: What about the “Plant response rating, Galium” value [5, 16] of the same molecule?
A: Its value is 90.

Q: What about the “Plant response rating, Galium” value [5, 17] of the same molecule?
A: The value was 95.

Q: And the “Plant response rating, Galium” value [5, 18]?
A: Its value is 85.

Q: What about the “Plant response rating, Galium” value [5, 19] of the same molecule?
A: Its value is 100.

Q: And the “Plant response rating, Galium” value [5, 20]?
A: Its value is 100.

Q: What about the “Plant response rating, Galium” value [5, 21] of the same molecule?
A: The value was 100.

Q: And the “Plant response rating, Corn” value [6, 15]?
A: The value was 15.

Q: And the “Plant response rating, Corn” value [6, 16]?
A: The value was 25.

Q: What about the “Plant response rating, Corn” value [6, 17] of the same molecule?
A: Its value is 30.

Q: And the “Plant response rating, Corn” value [6, 18]?
A: Its value is 5.

Q: What about the “Plant response rating, Corn” value [6, 19] of the same molecule?
A: Its value is 5.

Q: And the “Plant response rating, Corn” value [6, 20]?
A: The value was 10.

Q: And the “Plant response rating, Corn” value [6, 21]?
A: The value was 30.

Q: What about the “Plant response rating, Crabgrass, Large” value [7, 14] of the same molecule?
A: Its value is 10.

Q: And the “Plant response rating, Crabgrass, Large” value [7, 15]?
A: Its value is 30.

Q: And the “Plant response rating, Crabgrass, Large” value [7, 16]?
A: The value was 40.

Q: What about the “Plant response rating, Crabgrass, Large” value [7, 17] of the same molecule?
A: The value was 70.

Q: What about the “Plant response rating, Crabgrass, Large” value [7, 18] of the same molecule?
A: Its value is 90.

Q: What about the “Plant response rating, Crabgrass, Large” value [7, 19] of the same molecule?
A: The value was 90.

Q: And the “Plant response rating, Crabgrass, Large” value [7, 20]?
A: Its value is 98.

Q: What about the “Plant response rating, Crabgrass, Large” value [7, 21] of the same molecule?
A: The value was 100.

Q: And the “Plant response rating, Foxtail, Giant” value [8, 14]?
A: The value was 10.

Q: And the “Plant response rating, Foxtail, Giant” value [8, 15]?
A: Its value is 15.

Q: What about the “Plant response rating, Foxtail, Giant” value [8, 16] of the same molecule?
A: Its value is 25.

Q: And the “Plant response rating, Foxtail, Giant” value [8, 17]?
A: The value was 50.

Q: What about the “Plant response rating, Foxtail, Giant” value [8, 18] of the same molecule?
A: Its value is 90.

Q: And the “Plant response rating, Foxtail, Giant” value [8, 19]?
A: The value was 90.

Q: And the “Plant response rating, Foxtail, Giant” value [8, 20]?
A: Its value is 90.

Q: And the “Plant response rating, Foxtail, Giant” value [8, 21]?
A: The value was 95.

Q: And the “Plant response rating, Lambsquarters” value [9, 14]?
A: The value was 98.

Q: What about the “Plant response rating, Lambsquarters” value [9, 15] of the same molecule?
A: Its value is 98.

Q: What about the “Plant response rating, Lambsquarters” value [9, 16] of the same molecule?
A: The value was 98.

Q: And the “Plant response rating, Lambsquarters” value [9, 17]?
A: Its value is 98.

Q: And the “Plant response rating, Lambsquarters” value [9, 18]?
A: The value was 100.

Q: What about the “Plant response rating, Lambsquarters” value [9, 19] of the same molecule?
A: The value was 100.

Q: What about the “Plant response rating, Lambsquarters” value [9, 20] of the same molecule?
A: The value was 100.

Q: What about the “Plant response rating, Lambsquarters” value [9, 21] of the same molecule?
A: The value was 100.

Q: And the “Plant response rating, Morningglory” value [10, 14]?
A: The value was 65.

Q: What about the “Plant response rating, Morningglory” value [10, 15] of the same molecule?
A: Its value is 70.

Q: And the “Plant response rating, Morningglory” value [10, 16]?
A: Its value is 75.

Q: What about the “Plant response rating, Morningglory” value [10, 17] of the same molecule?
A: Its value is 100.

Q: What about the “Plant response rating, Morningglory” value [10, 18] of the same molecule?
A: The value was 5.

Q: What about the “Plant response rating, Morningglory” value [10, 19] of the same molecule?
A: Its value is 10.

Q: And the “Plant response rating, Morningglory” value [10, 20]?
A: The value was 10.

Q: And the “Plant response rating, Morningglory” value [10, 21]?
A: Its value is 30.

Q: What does the source list for FCc1nn(-c2ccc(F)cc2)nc1Oc1ccnc(C(F)(F)F)c1 [Compound 160]?
A: Plant response rating, Pigweed [1, 11]: 100; Pigweed plant response rating ([1]; Postemergence, 500 g ai/ha): 100; Plant response rating, Pigweed [1, 12]: 100; Plant response rating, Pigweed [1, 13]: 100; Plant response rating, Wheat [2, 11]: 40; Wheat plant response rating ([2]; Postemergence, 500 g ai/ha): 50; Plant response rating, Wheat [2, 12]: 30; Plant response rating, Wheat [2, 13]: 50; Plant response rating, Barnyardgrass (0 to 100 scale, 0 is no effect, 100 is complete control) [3]: 65; Plant response rating, Ryegrass, Italian [4, 22]: 10; Plant response rating, Ryegrass, Italian [4, 14]: 30; Plant response rating, Ryegrass, Italian [4, 15]: 30; Plant response rating, Ryegrass, Italian [4, 16]: 45; Plant response rating, Ryegrass, Italian [4, 23]: 5; Plant response rating, Ryegrass, Italian [4, 18]: 15; Plant response rating, Ryegrass, Italian [4, 19]: 80; Plant response rating, Ryegrass, Italian [4, 20]: 90; Plant response rating, Galium [5, 22]: 55; Plant response rating, Galium [5, 14]: 80; Plant response rating, Galium [5, 15]: 85; Plant response rating, Galium [5, 16]: 95; Plant response rating, Galium [5, 18]: 5; Plant response rating, Galium [5, 19]: 100; Plant response rating, Galium [5, 20]: 100; Plant response rating, Corn [6, 22]: 15; Plant response rating, Corn [6, 14]: 15; Plant response rating, Corn [6, 15]: 20; Plant response rating, Corn [6, 16]: 25; Plant response rating, Corn [6, 23]: 5; Plant response rating, Corn [6, 18]: 5; Plant response rating, Corn [6, 19]: 5; Plant response rating, Corn [6, 20]: 5; Plant response rating, Crabgrass, Large [7, 22]: 20; Plant response rating, Crabgrass, Large [7, 14]: 25; Plant response rating, Crabgrass, Large [7, 15]: 35; Plant response rating, Crabgrass, Large [7, 16]: 40; Plant response rating, Crabgrass, Large [7, 23]: 90; Plant response rating, Crabgrass, Large [7, 18]: 100; Plant response rating, Crabgrass, Large [7, 19]: 100; Plant response rating, Crabgrass, Large [7, 20]: 100; Plant response rating, Foxtail, Giant [8, 22]: 15; Plant response rating, Foxtail, Giant [8, 14]: 20; Plant response rating, Foxtail, Giant [8, 16]: 75; Plant response rating, Foxtail, Giant [8, 23]: 80; Plant response rating, Foxtail, Giant [8, 18]: 100; Plant response rating, Foxtail, Giant [8, 19]: 100; Plant response rating, Foxtail, Giant [8, 20]: 100; Plant response rating, Lambsquarters [9, 22]: 70; Plant response rating, Lambsquarters [9, 14]: 80; Plant response rating, Lambsquarters [9, 15]: 95; Plant response rating, Lambsquarters [9, 16]: 95; Plant response rating, Lambsquarters [9, 23]: 95; Plant response rating, Lambsquarters [9, 18]: 100; Plant response rating, Lambsquarters [9, 19]: 100; Plant response rating, Lambsquarters [9, 20]: 100; Plant response rating, Morningglory [10, 22]: 60; Plant response rating, Morningglory [10, 14]: 60; Plant response rating, Morningglory [10, 15]: 98; Plant response rating, Morningglory [10, 16]: 98; Plant response rating, Morningglory [10, 23]: 0; Plant response rating, Morningglory [10, 18]: 5; Plant response rating, Morningglory [10, 19]: 15; Plant response rating, Morningglory [10, 20]: 20
